Test results published in US20080269343A1, “GALENIC FORMULATIONS OF ORGANIC COMPOUNDS” (priority 2004, published 2008).

Experiment: Steady-state pharmacokinetics of aliskiren 300 mg alone, furosemide interaction study, Day 13 (Example 6)
Type: in vivo, human
Details: 300 mg daily, Day 13, healthy volunteers N 21; for AUC / Cmax / Tmax: both sexes, human, in vivo, oral, 300 mg
Protocol: An open-label, 2-period study in healthy subjects was carried out to evaluate the pharmacokinetic drug-drug interaction between furosemide and aliskiren when given alone or in combination. A total of 22 healthy male and female volunteers enrolled and 21 completed all study procedures and treatments. The subjects were admitted to the study center for at least 12 hours prior to the initial dosing for baseline evaluation, and confined to the clinic for entire study. Subjects were given an end-of-study evaluation on Day 17 approximately 24 h after the last treatment of aliskiren. For all treatment periods, subjects fasted for a minimum of 10 hours pre-dose to 4 hours post-dose. Subjects were considered to have completed the study when all safety and pharmacokinetic evaluations had been completed.
In Period 1 (Study Days 1-3), subjects received a single 20 mg daily dose of furosemide. In Period 2 (Study Days 7-16), subjects received 300 mg of aliskiren once a day for a total of 10 days with a single 20 mg daily dose of furosemide co-administered for three days (Study Days 14-16), starting Day 14 of the study. There was a three day wash out between Period 1 and 2 (Study Days 4-6).
Pharmacokinetic blood sampling for aliskiren alone occurred on Study Day 13 up to 24 hours post-dose (5-mL blood samples were collected into lithium heparin tubes on Day 13 of the study at pre-dose, 0.5, 1, 2, 4, 6, 8, 12, 16 and 24 hours after dosing).

## COCCCOc1cc(C[C@@H](C[C@H](N)[C@@H](O)C[C@H](C(=O)NCC(C)(C)C(N)=O)C(C)C)C(C)C)ccc1OC [aliskiren, 2(S),4(S),5(S),7(S)—N-(3-amino-2,2-dimethyl-3-oxopropyl)-2,7-di(1-methylethyl)-4-hydroxy-5-amino-8-[4-methoxy-3-(3-methoxy-propoxy)phenyl]-octanamide]
Max
  AUCτ: 3973 ng·h/mL
  Cmax^SS: 652 ng/mL
  Cmin^SS: 52.30 ng/mL
  tmax^SS: 6.0 h
Median
  Cmin^SS: 24.40 ng/mL
  AUC: 1810 ng·h/mL
  Cmax: 284 ng/mL
  Tmax: 1 h
Min
  AUCτ: 471 ng·h/mL
  Cmax^SS: 116 ng/mL
  Cmin^SS: 6.26 ng/mL
  tmax^SS: 0.5 h
Arithmetic mean
  Cmin^SS: 25.80 ng/mL
  AUC: 1890 ng·h/mL
  Cmax: 334 ng/mL
  Tmax: 1.5 h
